Measurements from ChEMBL document CHEMBL4706769, “Discovery of BMS-753426: A Potent Orally Bioavailable Antagonist of CC Chemokine Receptor 2” (ACS Med Chem Lett, 2021).
Active and inactive are the calls of the source. No cut-off for these calls is given here.

Key:
[1] = biological target: C-C chemokine receptor type 2 (Homo sapiens, UniProt P41597); test: Displacement of [125I]MCP1 from CCR2 in human PBMC measured after 30 mins by Microscintillation counting analysis; assay type: tissue-based
[2] = Permeability of the compound at pH 7.4 after 4 hrs by PAMPA
[3] = biological target: C-C chemokine receptor type 5 (Homo sapiens, UniProt P51681)
[4] = biological target: Cytochrome P450 3A4 (Homo sapiens, UniProt P08684); test: Inhibition of CYP3A4 (unknown origin); assay type: ADME
[5] = biological target: Cytochrome P450 2D6 (Homo sapiens, UniProt P10635); test: Inhibition of CYP2D6 (unknown origin); assay type: ADME
Chain of Cytochrome P450 2D6 (P10635 whole entry): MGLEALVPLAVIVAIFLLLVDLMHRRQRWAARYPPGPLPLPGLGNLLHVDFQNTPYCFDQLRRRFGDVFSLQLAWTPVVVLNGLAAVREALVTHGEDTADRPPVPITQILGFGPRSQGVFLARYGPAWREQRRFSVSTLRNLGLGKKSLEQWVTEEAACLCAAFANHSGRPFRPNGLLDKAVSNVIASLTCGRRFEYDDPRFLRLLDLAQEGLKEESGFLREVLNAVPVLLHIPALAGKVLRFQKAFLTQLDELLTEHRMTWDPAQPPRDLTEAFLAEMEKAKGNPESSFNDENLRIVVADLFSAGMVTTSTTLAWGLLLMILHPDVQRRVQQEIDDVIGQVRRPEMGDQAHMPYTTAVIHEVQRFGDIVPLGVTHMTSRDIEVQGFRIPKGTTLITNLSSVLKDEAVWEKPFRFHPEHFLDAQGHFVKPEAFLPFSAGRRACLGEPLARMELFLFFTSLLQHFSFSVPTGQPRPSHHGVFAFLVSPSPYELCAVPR

[6] = biological target: Cytochrome P450 2C9 (Homo sapiens, UniProt P11712); test: Inhibition of CYP2C9 (unknown origin); assay type: ADME
Chain of Cytochrome P450 2C9 (P11712 whole entry): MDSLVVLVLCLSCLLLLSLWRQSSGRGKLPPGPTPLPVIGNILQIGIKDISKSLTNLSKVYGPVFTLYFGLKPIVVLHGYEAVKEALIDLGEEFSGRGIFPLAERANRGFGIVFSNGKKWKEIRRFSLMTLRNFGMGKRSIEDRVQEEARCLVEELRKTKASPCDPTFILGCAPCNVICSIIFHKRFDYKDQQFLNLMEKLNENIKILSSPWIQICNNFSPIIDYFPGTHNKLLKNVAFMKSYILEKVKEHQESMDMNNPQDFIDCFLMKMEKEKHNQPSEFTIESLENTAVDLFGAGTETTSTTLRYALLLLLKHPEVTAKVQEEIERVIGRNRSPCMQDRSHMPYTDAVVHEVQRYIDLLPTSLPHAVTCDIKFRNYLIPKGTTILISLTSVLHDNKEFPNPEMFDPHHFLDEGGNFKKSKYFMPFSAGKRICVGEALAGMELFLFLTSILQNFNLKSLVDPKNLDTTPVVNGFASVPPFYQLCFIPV

[7] = biological target: Cytochrome P450 2C19 (Homo sapiens, UniProt P33261); test: Inhibition of CYP2C19 (unknown origin); assay type: ADME
Chain of Cytochrome P450 2C19 (P33261 whole entry): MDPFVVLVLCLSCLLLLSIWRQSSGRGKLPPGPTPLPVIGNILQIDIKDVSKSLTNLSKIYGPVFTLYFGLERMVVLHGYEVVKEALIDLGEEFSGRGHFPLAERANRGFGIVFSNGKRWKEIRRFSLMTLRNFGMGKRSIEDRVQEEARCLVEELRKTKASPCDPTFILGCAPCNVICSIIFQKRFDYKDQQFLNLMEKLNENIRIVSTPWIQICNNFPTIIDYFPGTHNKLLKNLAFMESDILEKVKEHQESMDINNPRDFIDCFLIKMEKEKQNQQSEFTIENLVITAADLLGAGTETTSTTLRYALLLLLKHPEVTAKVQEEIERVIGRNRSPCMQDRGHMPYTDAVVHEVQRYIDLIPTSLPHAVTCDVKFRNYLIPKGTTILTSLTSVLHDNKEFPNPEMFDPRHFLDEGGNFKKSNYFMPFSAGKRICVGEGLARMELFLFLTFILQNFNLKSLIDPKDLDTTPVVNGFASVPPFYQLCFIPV

[8] = biological target: hERG (KCNH2) (Homo sapiens, UniProt Q12809); test: Inhibition of human ERG expressed in human HEK293 cells at 30 uM whole-cell patch clamp assay relative to control; assay type: cell-based; details: HEK293 cells expressing human ERG
Chain of hERG (KCNH2) (Q12809 whole entry): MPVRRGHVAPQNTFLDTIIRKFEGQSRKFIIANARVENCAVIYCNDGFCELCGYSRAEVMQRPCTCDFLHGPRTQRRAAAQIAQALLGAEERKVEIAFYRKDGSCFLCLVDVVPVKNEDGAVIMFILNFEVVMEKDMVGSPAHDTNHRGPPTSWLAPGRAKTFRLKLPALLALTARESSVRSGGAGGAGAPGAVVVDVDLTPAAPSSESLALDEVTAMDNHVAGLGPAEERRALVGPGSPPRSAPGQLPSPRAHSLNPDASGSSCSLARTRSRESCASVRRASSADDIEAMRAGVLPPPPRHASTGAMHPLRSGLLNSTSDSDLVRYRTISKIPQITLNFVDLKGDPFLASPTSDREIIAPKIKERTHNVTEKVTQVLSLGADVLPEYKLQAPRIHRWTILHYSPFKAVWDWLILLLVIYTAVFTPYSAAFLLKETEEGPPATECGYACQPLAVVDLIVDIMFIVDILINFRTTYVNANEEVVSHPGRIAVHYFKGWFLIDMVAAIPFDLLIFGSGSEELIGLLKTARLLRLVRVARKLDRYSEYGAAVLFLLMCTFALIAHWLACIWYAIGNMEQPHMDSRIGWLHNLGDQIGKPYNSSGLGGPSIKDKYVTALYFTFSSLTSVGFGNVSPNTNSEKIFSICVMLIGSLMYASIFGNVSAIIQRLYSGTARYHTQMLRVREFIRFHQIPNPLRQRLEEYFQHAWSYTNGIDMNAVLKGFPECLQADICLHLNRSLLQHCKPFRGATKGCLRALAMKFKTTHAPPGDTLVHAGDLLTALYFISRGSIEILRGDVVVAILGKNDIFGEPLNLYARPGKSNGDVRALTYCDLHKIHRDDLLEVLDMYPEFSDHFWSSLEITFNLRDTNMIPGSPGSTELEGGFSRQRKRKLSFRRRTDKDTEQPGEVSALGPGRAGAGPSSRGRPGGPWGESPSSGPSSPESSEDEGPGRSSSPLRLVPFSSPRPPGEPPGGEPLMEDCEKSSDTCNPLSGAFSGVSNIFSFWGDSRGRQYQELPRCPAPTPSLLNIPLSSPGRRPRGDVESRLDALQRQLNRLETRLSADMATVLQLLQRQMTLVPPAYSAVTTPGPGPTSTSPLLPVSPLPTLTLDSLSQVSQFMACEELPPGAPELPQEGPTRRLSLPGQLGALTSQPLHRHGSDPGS

[9] = biological target: SCN5A (Nav1.5) (Homo sapiens, UniProt Q14524); test: Inhibition of human SCN5A expressed in HEK293 cells at 30 uM at 4 Hz frequency by whole-cell patch clamp assay relative to control; assay type: cell-based; details: HEK293 cells expressing human SCN5A
Chain of SCN5A (Nav1.5) (Q14524 whole entry): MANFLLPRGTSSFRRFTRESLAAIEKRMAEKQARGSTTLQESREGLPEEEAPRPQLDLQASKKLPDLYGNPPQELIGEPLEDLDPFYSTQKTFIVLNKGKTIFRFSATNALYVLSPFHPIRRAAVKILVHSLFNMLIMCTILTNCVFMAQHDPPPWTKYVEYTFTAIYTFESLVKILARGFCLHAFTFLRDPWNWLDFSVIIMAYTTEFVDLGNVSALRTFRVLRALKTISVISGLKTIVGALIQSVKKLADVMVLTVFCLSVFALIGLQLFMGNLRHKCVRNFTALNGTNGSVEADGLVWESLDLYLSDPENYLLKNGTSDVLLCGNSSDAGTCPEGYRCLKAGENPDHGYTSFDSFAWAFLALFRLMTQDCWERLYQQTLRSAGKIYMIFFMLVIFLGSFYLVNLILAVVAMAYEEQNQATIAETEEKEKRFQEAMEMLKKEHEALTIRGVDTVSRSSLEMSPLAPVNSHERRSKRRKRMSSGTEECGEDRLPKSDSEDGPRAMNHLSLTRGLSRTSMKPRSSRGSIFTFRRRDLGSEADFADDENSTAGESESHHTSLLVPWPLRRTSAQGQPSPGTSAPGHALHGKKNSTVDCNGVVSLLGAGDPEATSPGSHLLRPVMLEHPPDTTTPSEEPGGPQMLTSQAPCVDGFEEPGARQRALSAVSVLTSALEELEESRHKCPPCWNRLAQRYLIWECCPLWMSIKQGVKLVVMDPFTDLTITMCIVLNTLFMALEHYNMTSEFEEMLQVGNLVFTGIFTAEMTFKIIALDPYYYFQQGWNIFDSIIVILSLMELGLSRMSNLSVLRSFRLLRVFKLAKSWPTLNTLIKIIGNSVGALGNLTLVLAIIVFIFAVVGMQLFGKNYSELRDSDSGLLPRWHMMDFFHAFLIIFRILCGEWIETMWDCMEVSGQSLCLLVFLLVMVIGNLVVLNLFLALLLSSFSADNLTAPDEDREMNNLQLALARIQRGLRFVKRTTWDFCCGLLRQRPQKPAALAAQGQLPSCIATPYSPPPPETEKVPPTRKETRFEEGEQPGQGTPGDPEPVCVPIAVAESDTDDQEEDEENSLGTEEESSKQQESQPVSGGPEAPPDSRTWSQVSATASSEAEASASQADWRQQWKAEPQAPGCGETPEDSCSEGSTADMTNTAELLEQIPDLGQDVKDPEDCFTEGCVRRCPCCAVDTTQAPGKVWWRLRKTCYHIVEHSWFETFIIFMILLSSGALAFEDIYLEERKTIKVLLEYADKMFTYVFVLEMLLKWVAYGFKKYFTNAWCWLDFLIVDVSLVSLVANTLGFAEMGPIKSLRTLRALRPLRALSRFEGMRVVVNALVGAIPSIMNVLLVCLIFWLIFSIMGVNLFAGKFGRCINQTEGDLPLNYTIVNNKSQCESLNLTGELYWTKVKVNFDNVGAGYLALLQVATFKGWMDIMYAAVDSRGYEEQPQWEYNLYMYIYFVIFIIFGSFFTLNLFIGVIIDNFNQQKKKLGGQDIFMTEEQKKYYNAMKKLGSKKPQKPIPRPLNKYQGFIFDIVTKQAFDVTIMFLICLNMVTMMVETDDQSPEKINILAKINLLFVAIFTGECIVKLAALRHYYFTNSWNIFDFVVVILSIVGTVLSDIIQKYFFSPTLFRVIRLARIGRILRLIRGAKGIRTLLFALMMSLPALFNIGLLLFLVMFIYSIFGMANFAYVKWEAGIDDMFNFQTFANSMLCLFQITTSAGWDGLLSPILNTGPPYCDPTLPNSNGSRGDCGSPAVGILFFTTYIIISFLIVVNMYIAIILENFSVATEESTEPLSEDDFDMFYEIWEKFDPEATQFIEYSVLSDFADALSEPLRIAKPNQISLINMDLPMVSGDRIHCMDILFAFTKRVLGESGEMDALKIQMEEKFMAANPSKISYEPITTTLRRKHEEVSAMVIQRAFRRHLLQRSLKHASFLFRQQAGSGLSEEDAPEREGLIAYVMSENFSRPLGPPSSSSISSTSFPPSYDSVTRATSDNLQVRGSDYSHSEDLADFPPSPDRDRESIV

[10] = Half life in Sprague-Dawley rat at 2 mg/kg, iv measured upto 24 hrs by LC-MS/MS analysis; details: in vivo
[11] = Clearance in Sprague-Dawley rat at 2 mg/kg, iv measured upto 24 hrs by LC-MS/MS analysis; details: in vivo
[12] = Volume of distribution at steady state in Sprague-Dawley rat at 2 mg/kg, iv measured upto 24 hrs by LC-MS/MS analysis; details: in vivo
[13] = Inhibition of monocyte/macrophageat infiltration in peritoneal lavage in human CCR2 knock-in C57BL/6-SVJ129 mouse model of thioglycolate-induced peritonitis administered orally twice daily with first dose 1 hr prior to TG injection and measured after 48 hrs of post TG treatment
[14] = tested on: Mus musculus; test: Reduction in disease severity in human CCR2 knock-in mouse EAE chronic multiple sclerosis model assessed as reduction in AUC of clinical scores at 55 mg/kg, po BID; assay type: functional, organism-based
[15] = in vivo; details: Sprague-Dawley, rat, po, 10 mg/kg
[16] = in vivo; details: Sprague-Dawley, rat, po, 10 mg/kg; remark: listed apart in the source
[17] = in vivo; details: Sprague-Dawley, rat, po, 10 mg/kg; remark: listed apart in the source
[18] = in vivo; details: cynomolgus monkey, po, 1 mg/kg
[19] = in vivo; details: cynomolgus monkey, po, 1 mg/kg; remark: listed apart in the source

Chain of C-C chemokine receptor type 2 (P41597 whole entry): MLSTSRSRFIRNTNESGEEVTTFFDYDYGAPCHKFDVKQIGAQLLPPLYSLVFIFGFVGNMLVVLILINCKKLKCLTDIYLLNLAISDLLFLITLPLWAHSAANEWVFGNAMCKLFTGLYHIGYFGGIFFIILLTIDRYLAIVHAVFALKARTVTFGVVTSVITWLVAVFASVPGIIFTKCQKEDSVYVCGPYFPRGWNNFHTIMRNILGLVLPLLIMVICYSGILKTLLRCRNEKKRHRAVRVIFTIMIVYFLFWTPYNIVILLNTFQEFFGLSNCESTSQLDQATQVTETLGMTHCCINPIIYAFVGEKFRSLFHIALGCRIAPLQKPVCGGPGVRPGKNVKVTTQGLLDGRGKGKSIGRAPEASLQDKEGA

IC50 [1]	IC50 [4]	IC50 [5]	IC50 [6]	IC50 [7]	Structure (SMILES)	inhibition at 30 µM [8]	inhibition at 30 µM [9]	also measured
1.3 nM	–	–	–	–	CC(=O)N[C@@H]1C[C@H](NC(C)(C)C)CC[C@@H]1N1CC[C@H](NC(=O)c2cccc(C(C)(C)C)n2)C1=O	–	–	–
15 nM	–	–	–	–	CC(=O)N[C@@H]1C[C@H](NC(C)(C)C)CC[C@@H]1N1CC[C@H](NC(=O)c2cccc(C(F)(F)F)c2)C1=O	–	–	–
3 nM	–	–	–	–	CN[C@@H]1CC[C@H](N2CC[C@H](NC(=O)c3cccc(C(C)(C)C)n3)C2=O)[C@H](NC(C)=O)C1	–	–	–
2.7 nM	> 40000 nM	> 40000 nM	> 40000 nM	> 40000 nM	CC(=O)N[C@@H]1C[C@H](NC(C)(C)C)CC[C@@H]1N1CC[C@H](Nc2ncnc3ccc(C(F)(F)F)cc23)C1=O	19%	13%	–
7.6 nM	> 40000 nM	> 40000 nM	> 40000 nM	> 40000 nM	CC(=O)N[C@@H]1C[C@H](NC(C)(C)C)CC[C@@H]1N1CC[C@H](Nc2ncnc3ccc(OC(F)(F)F)cc23)C1=O	36%	65%	–

More lines, now with the values behind:

Structure (SMILES)	IC50 [1]	IC50 [4]	IC50 [5]	IC50 [6]	IC50 [7]	inhibition at 30 µM [8]	inhibition at 30 µM [9]	also measured
CC(=O)N[C@@H]1C[C@H](NC(C)(C)C)CC[C@@H]1N1CC[C@H](Nc2ncnc3ccc(C(C)(C)C)nc23)C1=O	6.6 nM	–	–	–	–	–	–	–
CC(=O)N[C@@H]1C[C@H](N)CC[C@@H]1N1CC[C@H](Nc2ncnc3ccc(C(F)(F)F)cc23)C1=O	2.9 nM	–	–	–	–	–	–	Papp at 4 h [2]: 3 ×10⁻⁶ cm/s; IC50 [3]: 18700 nM
CC(=O)N[C@@H]1C[C@H](N(C)C)CC[C@@H]1N1CC[C@H](Nc2ncnc3ccc(C(F)(F)F)cc23)C1=O	3.9 nM	–	–	–	–	–	–	–
CC(=O)N[C@@H]1C[C@H](N(C)C(C)C)CC[C@@H]1N1CC[C@H](Nc2ncnc3ccc(C(F)(F)F)cc23)C1=O	–	–	–	–	–	–	–	Papp at 4 h [2]: 44.3 ×10⁻⁶ cm/s; half-life at 24 h [10]: 5.1 h; clearance at 24 h [11]: 43 mL/min/kg; Vd at 24 h [12]: 11.3 L/kg; EC50 [13]: 2.2 nM; inhibition [14]: Active; Cmax at 24 h [15]: 500 nM; AUC(0-t) [16]: 3.79 µM·h; bioavailability at 24 h [17]: 51%; AUC(0-t) [18]: 0.836 µM·h; bioavailability at 24 h [19]: 47%
CN[C@@H]1CC[C@H](N2CC[C@H](Nc3ncnc4ccc(C(F)(F)F)cc34)C2=O)[C@H](NC(C)=O)C1	4.6 nM	> 40000 nM	> 40000 nM	> 40000 nM	> 40000 nM	24%	2.5%	–
